The values below come from US20060154942A1, “Quinazolinone derivatives useful as anti-hyperalgesic agents” (priority 2002, published 2006).

For the compound `CC(C)c1cc2nc(N)[nH]c(=O)c2cc1-c1ccc(Cl)cc1` [Example 59, 2-Amino-6-(4-chlorophenyl)-7-isopropyl-3H-quinazolin-4-one], the melting point (in general, the temperature of the solid-liquid transition) fell in the range of 326 to 330 °C.
